2 compounds from ChEMBL document CHEMBL5143607, “Discovery and structure-activity relationships of a novel oxazolidinone class of bacterial type II topoisomerase inhibitors” (Bioorg Med Chem Lett, 2022) can be followed below.

Converted amounts (≈) assume the structure as drawn.

For orientation: IC50 means the concentration needed to halve the response being measured. One may read the MIC as the lowest concentration that inhibits growth of the organism. Usually logD stands for lipophilicity at a set pH, counting ionised and neutral species.

System in one data set: not listed separately
As to the kind of experiment: Cytotoxicity against human HepG2 cells assessed as reduction in cell viability for 24 hrs by Celltiter-Glo assay.
Conditions: not given
The format is toxicity, cell-based.
Regarding `COc1ccc2ccc(=O)n(CCN[C@H]3CC[C@H]4[C@H](C3)OC(=O)N4c3ccc4c(n3)NC(=O)CS4)c2n1`, the IC50 at 24 h was determined as 35 µg/mL (≈ 67 µM).

In the case of `COc1ccc2ccc(=O)n(CCN[C@H]3CC[C@H]4[C@@H](C3)OC(=O)N4c3ccc4c(n3)NC(=O)CO4)c2n1`, the IC50 at 24 h was greater than 8 µg/mL.

Another data set relates to Escherichia coli. Kind of data set: Antibacterial activity against Escherichia coli W4573 assessed as bacterial growth inhibition by CLSI protocol based assay. The data set is classed as functional.
Conditions: not given
Take `COc1ccc2ccc(=O)n(CCN[C@H]3CC[C@H]4[C@H](C3)OC(=O)N4c3ccc4c(n3)NC(=O)CS4)c2n1`: the minimum inhibitory concentration (MIC) amounted to 0.12 µg/mL (≈ 0.23 µM).

`COc1ccc2ccc(=O)n(CCN[C@H]3CC[C@H]4[C@@H](C3)OC(=O)N4c3ccc4c(n3)NC(=O)CO4)c2n1`: the MIC is 0.5 µg/mL (≈ 0.987 µM).

For another data set, the target named is DNA gyrase (Escherichia coli, UniProt P0AES4+P0AES6). Kind of data set: Inhibition of Escherichia coli DNA gyrase supercoiling activity. The format is protein-complex assay.
Conditions: not given
Compound `COc1ccc2ccc(=O)n(CCN[C@H]3CC[C@H]4[C@H](C3)OC(=O)N4c3ccc4c(n3)NC(=O)CS4)c2n1` gave an IC50 of 0.105 µM.

System in a further data set: not listed separately
As to the kind of experiment: Intrinsic clearance in mouse liver microsomes in presence of NADPH and measured upto 45 mins. The format is ADME, Microsome. To be noted: read-out: CLH. A general note: Liver microsomes are a subcellular fraction often used to study metabolism.
On to `COc1ccc2ccc(=O)n(CCN[C@H]3CC[C@H]4[C@H](C3)OC(=O)N4c3ccc4c(n3)NC(=O)CS4)c2n1`, for which the microsomal CLint is greater than 277 µL/min/mg.

Another data set has as its system Pseudomonas aeruginosa. Kind of data set: Antibacterial activity against Pseudomonas aeruginosa ATCC 27853 assessed as bacterial growth inhibition by CLSI protocol based assay. The data set is classed as functional.
Conditions: not given
On to `COc1ccc2ccc(=O)n(CCN[C@H]3CC[C@H]4[C@H](C3)OC(=O)N4c3ccc4c(n3)NC(=O)CS4)c2n1`, for which the MIC was determined as 1 µg/mL (≈ 1.91 µM).

For the compound `COc1ccc2ccc(=O)n(CCN[C@H]3CC[C@H]4[C@@H](C3)OC(=O)N4c3ccc4c(n3)NC(=O)CO4)c2n1`, the MIC turned out to be 2 µg/mL (≈ 3.95 µM).

The test system of another data set is Klebsiella pneumoniae. Kind of data set: Antibacterial activity against Klebsiella pneumoniae ATCC 700603 assessed as bacterial growth inhibition by CLSI protocol based assay. The data set is classed as functional.
Conditions: not given
For the compound `COc1ccc2ccc(=O)n(CCN[C@H]3CC[C@H]4[C@H](C3)OC(=O)N4c3ccc4c(n3)NC(=O)CS4)c2n1`, the MIC worked out at 2 µg/mL (≈ 3.83 µM).

Consider `COc1ccc2ccc(=O)n(CCN[C@H]3CC[C@H]4[C@@H](C3)OC(=O)N4c3ccc4c(n3)NC(=O)CO4)c2n1`, for which the MIC was determined as 8 µg/mL (≈ 15.8 µM).

System in a further data set: not listed separately
As to the kind of experiment: Kinetic solubility of compound. Conditions: read-out: Kinetic_solubility. The format is physicochemical.
Regarding `COc1ccc2ccc(=O)n(CCN[C@H]3CC[C@H]4[C@H](C3)OC(=O)N4c3ccc4c(n3)NC(=O)CS4)c2n1`, the solubility kinetic was determined as 54 µM (≈ 28.2 µg/mL).

The test system of another data set is Acinetobacter baumannii. Kind of data set: Antibacterial activity against Acinetobacter baumannii NCTC 13420 assessed as bacterial growth inhibition by CLSI protocol based assay. The data set is classed as functional.
Conditions: not given
Consider `COc1ccc2ccc(=O)n(CCN[C@H]3CC[C@H]4[C@H](C3)OC(=O)N4c3ccc4c(n3)NC(=O)CS4)c2n1`, for which the MIC is 0.015 µg/mL (≈ 0.0287 µM).

Take `COc1ccc2ccc(=O)n(CCN[C@H]3CC[C@H]4[C@@H](C3)OC(=O)N4c3ccc4c(n3)NC(=O)CO4)c2n1`: the MIC is 0.12 µg/mL (≈ 0.237 µM).

System in a further data set: not listed separately
Kind of data set: Protein binding in human plasma by equilibrium dialysis assay. The data set is classed as ADME, cell-free. Conditions: read-out: PPB (converted). (In general: In equilibrium dialysis only unbound substance equilibrates across the membrane.)
Take `COc1ccc2ccc(=O)n(CCN[C@H]3CC[C@H]4[C@@H](C3)OC(=O)N4c3ccc4c(n3)NC(=O)CO4)c2n1`: the fraction unbound is 0.919.

System in another data set: not listed separately
Kind of data set: Inhibition of Escherichia coli topoisomerase 4 assessed as reduction in decatenation.
Conditions: not given
Turning to `COc1ccc2ccc(=O)n(CCN[C@H]3CC[C@H]4[C@H](C3)OC(=O)N4c3ccc4c(n3)NC(=O)CS4)c2n1`, the IC50 worked out at 0.024 µM.

System in a further data set: not listed separately
As to the kind of experiment: Lipophilicity, logD of the compound by shake flask assay. The format is physicochemical. Conditions: octanol/water.
`COc1ccc2ccc(=O)n(CCN[C@H]3CC[C@H]4[C@H](C3)OC(=O)N4c3ccc4c(n3)NC(=O)CS4)c2n1` came in with a log distribution coefficient (logD) of 2.58.

As for `COc1ccc2ccc(=O)n(CCN[C@H]3CC[C@H]4[C@@H](C3)OC(=O)N4c3ccc4c(n3)NC(=O)CO4)c2n1`, the logD is 2.

A further data set deals with DNA topoisomerase 2-alpha (Homo sapiens, UniProt P11388). As to the kind of experiment: Inhibition of human topoisomerase 2 assessed as reduction in decatenation.
DNA topoisomerase 2-alpha, sequence (P11388 whole entry): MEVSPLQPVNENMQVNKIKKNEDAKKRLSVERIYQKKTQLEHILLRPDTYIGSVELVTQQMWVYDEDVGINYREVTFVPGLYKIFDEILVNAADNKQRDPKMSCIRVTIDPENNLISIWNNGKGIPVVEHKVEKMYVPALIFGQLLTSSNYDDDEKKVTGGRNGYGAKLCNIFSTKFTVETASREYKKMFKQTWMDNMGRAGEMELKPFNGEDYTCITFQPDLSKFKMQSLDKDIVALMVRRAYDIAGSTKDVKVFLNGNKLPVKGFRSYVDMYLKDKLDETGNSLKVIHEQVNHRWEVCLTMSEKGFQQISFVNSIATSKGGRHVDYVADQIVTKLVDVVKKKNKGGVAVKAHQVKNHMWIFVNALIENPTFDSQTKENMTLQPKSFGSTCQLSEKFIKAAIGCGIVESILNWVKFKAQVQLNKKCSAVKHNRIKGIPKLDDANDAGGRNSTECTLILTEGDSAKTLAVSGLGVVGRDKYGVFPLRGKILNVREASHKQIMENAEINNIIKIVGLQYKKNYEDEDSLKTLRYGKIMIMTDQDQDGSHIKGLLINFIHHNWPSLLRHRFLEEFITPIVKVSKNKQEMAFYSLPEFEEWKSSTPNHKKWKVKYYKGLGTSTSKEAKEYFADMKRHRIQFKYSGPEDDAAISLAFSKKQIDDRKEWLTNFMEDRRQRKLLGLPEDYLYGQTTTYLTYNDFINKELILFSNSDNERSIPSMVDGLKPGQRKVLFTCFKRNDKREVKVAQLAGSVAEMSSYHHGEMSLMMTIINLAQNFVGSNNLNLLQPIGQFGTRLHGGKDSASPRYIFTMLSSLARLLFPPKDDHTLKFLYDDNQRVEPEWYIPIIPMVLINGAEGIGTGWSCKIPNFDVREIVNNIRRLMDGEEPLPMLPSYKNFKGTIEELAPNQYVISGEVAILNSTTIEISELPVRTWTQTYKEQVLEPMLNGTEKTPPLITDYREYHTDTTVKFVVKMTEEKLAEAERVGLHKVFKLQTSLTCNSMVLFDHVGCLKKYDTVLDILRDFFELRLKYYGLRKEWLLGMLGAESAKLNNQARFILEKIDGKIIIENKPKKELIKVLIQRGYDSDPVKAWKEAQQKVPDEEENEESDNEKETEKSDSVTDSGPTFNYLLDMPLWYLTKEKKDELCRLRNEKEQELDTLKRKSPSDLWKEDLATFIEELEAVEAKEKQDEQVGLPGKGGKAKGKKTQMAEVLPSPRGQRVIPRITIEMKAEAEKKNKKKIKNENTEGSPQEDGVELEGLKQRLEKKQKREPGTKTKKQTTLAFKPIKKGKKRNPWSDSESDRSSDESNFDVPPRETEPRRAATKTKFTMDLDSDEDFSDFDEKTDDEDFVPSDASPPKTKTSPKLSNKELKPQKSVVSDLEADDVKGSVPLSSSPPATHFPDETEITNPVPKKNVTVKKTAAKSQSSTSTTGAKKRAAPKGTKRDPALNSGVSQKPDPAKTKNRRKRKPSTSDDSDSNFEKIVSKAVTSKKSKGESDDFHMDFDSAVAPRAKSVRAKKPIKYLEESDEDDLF
Conditions: not given
As for `COc1ccc2ccc(=O)n(CCN[C@H]3CC[C@H]4[C@H](C3)OC(=O)N4c3ccc4c(n3)NC(=O)CS4)c2n1`, the IC50 is greater than 100 µM.

The next data set relates to Escherichia coli. As to the kind of experiment: Antibacterial activity against Escherichia coli ATCC25922 assessed as bacterial growth inhibition by CLSI protocol based assay.
Conditions: not given
The data set is classed as functional.
As for `COc1ccc2ccc(=O)n(CCN[C@H]3CC[C@H]4[C@H](C3)OC(=O)N4c3ccc4c(n3)NC(=O)CS4)c2n1`, the MIC is 0.06 µg/mL (≈ 0.115 µM).

System in a further data set: not listed separately
As to the kind of experiment: Plasma protein binding in mouse assessed as free fraction by equilibrium dialysis assay.
Conditions: not given
The format is ADME, cell-free.
On to `COc1ccc2ccc(=O)n(CCN[C@H]3CC[C@H]4[C@H](C3)OC(=O)N4c3ccc4c(n3)NC(=O)CS4)c2n1`, for which the fraction unbound is 0.09.

System in another data set: not listed separately
Kind of data set: Protein binding in mouse plasma by equilibrium dialysis assay. The data set is classed as ADME, cell-free. To be noted: read-out: PPB (converted).
For `COc1ccc2ccc(=O)n(CCN[C@H]3CC[C@H]4[C@@H](C3)OC(=O)N4c3ccc4c(n3)NC(=O)CO4)c2n1`, the fraction unbound was 0.878.

The subject of another data set is Staphylococcus aureus. Kind of data set: Antibacterial activity against Staphylococcus aureus ATCC 29213 assessed as bacterial growth inhibition by CLSI protocol based assay. The data set is classed as functional.
Conditions: not given
In the case of `COc1ccc2ccc(=O)n(CCN[C@H]3CC[C@H]4[C@H](C3)OC(=O)N4c3ccc4c(n3)NC(=O)CS4)c2n1`, the MIC is no more than 0.002 µg/mL.

For the compound `COc1ccc2ccc(=O)n(CCN[C@H]3CC[C@H]4[C@@H](C3)OC(=O)N4c3ccc4c(n3)NC(=O)CO4)c2n1`, the MIC was 0.03 µg/mL (≈ 0.0592 µM).

The test system of a further data set is Escherichia coli. Kind of data set: Antibacterial activity against Escherichia coli N43 assessed as bacterial growth inhibition by CLSI protocol based assay.
Conditions: not given
The format is functional.
Consider `COc1ccc2ccc(=O)n(CCN[C@H]3CC[C@H]4[C@H](C3)OC(=O)N4c3ccc4c(n3)NC(=O)CS4)c2n1`, for which the MIC was no more than 0.002 µg/mL.

On to `COc1ccc2ccc(=O)n(CCN[C@H]3CC[C@H]4[C@@H](C3)OC(=O)N4c3ccc4c(n3)NC(=O)CO4)c2n1`, for which the MIC is less than 0.008 µg/mL.

For another data set, the target named is Voltage-gated inwardly rectifying potassium channel KCNH2 (Homo sapiens, UniProt Q12809). Kind of data set: Inhibition of human ERG by Ionworks electrophysiology assay.
Voltage-gated inwardly rectifying potassium channel KCNH2, sequence (Q12809 whole entry): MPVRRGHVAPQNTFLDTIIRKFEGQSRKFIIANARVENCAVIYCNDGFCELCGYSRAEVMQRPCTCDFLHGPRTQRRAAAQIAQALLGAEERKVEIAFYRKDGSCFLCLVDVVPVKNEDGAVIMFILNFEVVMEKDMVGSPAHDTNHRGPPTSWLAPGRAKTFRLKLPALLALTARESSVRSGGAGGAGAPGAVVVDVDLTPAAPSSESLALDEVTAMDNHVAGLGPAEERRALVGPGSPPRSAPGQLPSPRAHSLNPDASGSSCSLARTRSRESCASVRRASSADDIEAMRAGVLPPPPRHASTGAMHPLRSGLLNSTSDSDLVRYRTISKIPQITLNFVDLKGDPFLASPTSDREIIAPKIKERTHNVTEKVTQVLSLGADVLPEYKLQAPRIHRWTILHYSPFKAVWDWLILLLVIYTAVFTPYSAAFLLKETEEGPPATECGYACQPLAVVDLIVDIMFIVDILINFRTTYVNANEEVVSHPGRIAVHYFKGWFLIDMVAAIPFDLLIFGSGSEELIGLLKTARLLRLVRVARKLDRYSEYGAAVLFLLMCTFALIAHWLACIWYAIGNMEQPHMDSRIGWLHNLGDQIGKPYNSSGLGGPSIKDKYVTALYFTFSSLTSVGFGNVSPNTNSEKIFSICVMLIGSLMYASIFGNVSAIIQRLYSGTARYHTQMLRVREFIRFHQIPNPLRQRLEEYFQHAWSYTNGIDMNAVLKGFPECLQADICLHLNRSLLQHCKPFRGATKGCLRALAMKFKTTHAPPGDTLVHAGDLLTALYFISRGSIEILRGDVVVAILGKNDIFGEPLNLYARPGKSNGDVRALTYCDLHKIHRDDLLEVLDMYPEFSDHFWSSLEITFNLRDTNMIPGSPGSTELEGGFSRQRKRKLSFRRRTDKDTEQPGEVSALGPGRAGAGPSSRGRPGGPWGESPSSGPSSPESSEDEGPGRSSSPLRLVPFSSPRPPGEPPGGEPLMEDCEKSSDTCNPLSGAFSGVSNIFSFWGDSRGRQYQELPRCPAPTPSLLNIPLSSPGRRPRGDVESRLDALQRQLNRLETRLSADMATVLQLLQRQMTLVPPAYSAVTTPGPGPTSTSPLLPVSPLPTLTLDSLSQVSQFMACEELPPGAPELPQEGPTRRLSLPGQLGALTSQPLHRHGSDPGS
Conditions: not given
The format is toxicity. (The patch-clamp technique gives a direct electrical read-out from membranes.)
Regarding `COc1ccc2ccc(=O)n(CCN[C@H]3CC[C@H]4[C@H](C3)OC(=O)N4c3ccc4c(n3)NC(=O)CS4)c2n1`, the IC50 turned out to be 4 µM.

`COc1ccc2ccc(=O)n(CCN[C@H]3CC[C@H]4[C@@H](C3)OC(=O)N4c3ccc4c(n3)NC(=O)CO4)c2n1` yielded an IC50 of 3 µM.

System in a further data set: not listed separately
Kind of data set: Intrinsic clearance in human liver microsomes in presence of NADPH and measured upto 45 mins. The data set is classed as ADME, Microsome. Conditions: read-out: CLH.
With `COc1ccc2ccc(=O)n(CCN[C@H]3CC[C@H]4[C@H](C3)OC(=O)N4c3ccc4c(n3)NC(=O)CS4)c2n1`, the microsomal CLint was found to be 267 µL/min/mg.
